Patent US20220184222A1, “BICYCLE TOXIN CONJUGATES AND USES THEREOF” (BicycleTx Limited, priority 2019, published 2022)
Where “and” joins values, the source holds several entries; their conditions need not be identical. Identical values can stand only once. Entries after “also recorded” stand apart in the source; their conditions may differ. Starred links: 1 amine or outer side, 2 acyl side, 3 side chain; linkers in the order of their positions; H or OH if unused. Non-standard residues stand in square brackets, D forms with d. Residues, ends and D or L forms follow the SMILES beside them. *: point of attachment. Dolaproine = CO[C@@H]([C@@H]1CCCN1)[C@@H](C)C(=O)O; Dil = CC[C@H](C)[C@H](NC)[C@@H](CC(=O)O)OC; PABC = O=C(OCc1ccc(N[*:1])cc1)[*:2]; X1 = O=C(CCCC(=O)*)ON1C(=O)CCC1=O; X2 = C[C@@H](N*)[C@@H](O)c1ccccc1; Cit = NC(=O)NCCC[C@H](N)C(=O)O; NMeV = CN[C@H](C(=O)O)C(C)C

Tested on: PC-3 xenograft
Assay: In vivo efficacy in PC-3 xenograft, female BALB/c nude mice (Example 2)
Set-up: species or system Mus Musculus
Procedure: The objective of the research was to evaluate the in vivo anti-tumor efficacy of BT5528 and BCY10188 in treatment of PC-3 xenograft model in BALB/c nude mice.
Each mouse was inoculated subcutaneously at the right flank with PC-3 tumor cells ([…]) in 0.2 ml of PBS for tumor development. 60 animals were randomized when the average tumor volume reached 464 mm^3. The test article administration and the animal numbers in each group were shown in the experimental design table.
1) 0.1 mg/mL solution (with 50 mM Acetate 10% sucrose pH 5 buffer) was prepared before the operation. 2) The syringe loaded with dosing solution was fixed on the Syringe Pump Machine, then a needle was bound to the pipe jointed with the syringe. 3) The injection volume (10 ml/kg, calculated based on the bodyweight), injection time (1 h for this study), and infusion rate was set to the Pump, then a quick running was conducted to check the working condition of the whole system. 4) The mouse was fixed comfortably, then the operator injected the syringe needle into the caudal vein, and fixed the mouse tail as well as the needle firmly and stably(no need anesthesia for less than 1 h) 5) Then the infusion was started, and the operator kept monitoring the dosing condition till the end.
1) 0.130 mg/mL solution (with 50 mM Acetate 10% sucrose pH 5 buffer) was prepared before the operation. 2) The pump was fully filled with the dosing solution (˜200 μl, see the hand book of the Alzet pump 2001D). 3) The animal in group 12 was anesthetized with 80 mg/kg pentobarbital sodium, and the pump was embedded under the skin of left side of mouse. 4) 26 h later, the animals were anesthetized with pentobarbital sodium, and the pump was taken out. (The infusion rate is not stable at the first 1-3 h, thus the pump was taken out at 26 h instead of 24 h to ensure that all solution was pumped-out).
The major endpoint was to see if the tumor growth could be delayed or mice could be cured. Tumor volume was measured 3 times per week in two dimensions using a caliper, and the volume was expressed in mm^3 using the formula: V=0.5 a×b^2 where a and b are the long and short diameters of the tumor, respectively. The tumor size was then used for calculations of T/C value. The T/C value (in percent) is an indication of antitumor effectiveness; T and C are the mean volumes of the treated and control groups, respectively, on a given day.
TGI was calculated for each group using the formula: TGI (%)=[1−(Ti−T0)/(Vi−V0)]×100; Ti is the average tumor volume of a treatment group on a given day, T0 is the average tumor volume of the treatment group on the day of treatment start, Vi is the average tumor volume of the vehicle control group on the same day with Ti, and V0 is the average tumor volume of the vehicle group on the day of treatment start.
Tumor growth inhibition rate of BT5528 and BCY10188 in the PC-3 xenograft model was calculated based on tumor volume measurements on day 17 after the start of treatment.

[1] = 1 mpk iv 1 h infusion qw*2 weeks, day 17
[2] = 1 mpk sc 24 h minipump qw*2 weeks, day 17

## CC[C@H](C)[C@@H]([C@@H](CC(=O)N1CCC[C@H]1[C@H](OC)[C@@H](C)C(=O)N[C@H](C)[C@@H](O)c1ccccc1)OC)N(C)C(=O)[C@@H](NC(=O)[C@H](C(C)C)N(C)C(=O)OCc1ccc(NC(=O)[C@H](CCCNC(N)=O)NC(=O)[C@@H](NC(=O)CCCC(=O)ON2C(=O)CCC2=O)C(C)C)cc1)C(C)C [BT5528] (X1-V[Cit][PABC][NMeV]V[Dil][Dolaproine]-X2)
1 mg/kg qw*2 weeks via intravenous bolus, intravenous infusion or subcutaneous ALZET pump
  tumor relapse after ceasing the treatment: obvious relapse 2 weeks later after ceasing the treatment
1 mg/kg, iv bolus (QW×2 and QW×4), 1 h iv infusion (QW×2), 24 h subcutaneous osmotic pump (QW×2)
  efficacy across dosing paradigms: equivalent efficacy with a wide range of dosing paradigms; also recorded: comparable anti-tumor activity
0.11 mpk iv qw*4 weeks, day 0
  Tumor volume: 463 mm^3
0.11 mpk iv qw*4 weeks, day 2
  Tumor volume: 634 mm^3
0.11 mpk iv qw*4 weeks, day 4
  Tumor volume: 725 mm^3
0.11 mpk iv qw*4 weeks, day 6
  Tumor volume: 861 mm^3
0.11 mpk iv qw*4 weeks, day 8
  Tumor volume: 1172 mm^3
0.11 mpk iv qw*4 weeks, day 10
  Tumor volume: 1247 mm^3
0.11 mpk iv qw*4 weeks, day 13
  Tumor volume: 1333 mm^3
0.11 mpk iv qw*4 weeks, day 15
  Tumor volume: 1568 mm^3
0.11 mpk iv qw*4 weeks, day 17
  T/C: 88.1%
  TGI: 15.3%
  Tumor volume: 1780 mm^3 and 1780 ± 116 mm^3
0.33 mpk iv qw*4 weeks, day 0
  Tumor volume: 463 mm^3
0.33 mpk iv qw*4 weeks, day 2
  Tumor volume: 597 mm^3
0.33 mpk iv qw*4 weeks, day 4
  Tumor volume: 530 mm^3
0.33 mpk iv qw*4 weeks, day 6
  Tumor volume: 525 mm^3
0.33 mpk iv qw*4 weeks, day 8
  Tumor volume: 584 mm^3
0.33 mpk iv qw*4 weeks, day 10
  Tumor volume: 536 mm^3
0.33 mpk iv qw*4 weeks, day 13
  Tumor volume: 493 mm^3
0.33 mpk iv qw*4 weeks, day 15
  Tumor volume: 544 mm^3
0.33 mpk iv qw*4 weeks, day 17
  T/C: 23.9%
  TGI: 98.8%
  Tumor volume: 482 mm^3 and 482 ± 22 mm^3
1 mpk iv 1 h infusion qw*2 weeks, day 0
  Tumor volume: 463 mm^3
1 mpk iv 1 h infusion qw*2 weeks, day 2
  Tumor volume: 538 mm^3
1 mpk iv 1 h infusion qw*2 weeks, day 4
  Tumor volume: 539 mm^3
1 mpk iv 1 h infusion qw*2 weeks, day 6
  Tumor volume: 467 mm^3
1 mpk iv 1 h infusion qw*2 weeks, day 8
  Tumor volume: 399 mm^3
1 mpk iv 1 h infusion qw*2 weeks, day 10
  Tumor volume: 330 mm^3
1 mpk iv 1 h infusion qw*2 weeks, day 13
  Tumor volume: 260 mm^3
1 mpk iv 1 h infusion qw*2 weeks, day 15
  Tumor volume: 213 mm^3
[1]
  T/C: 10.3%
  TGI: 116.4%
  Tumor volume: 209 mm^3 and 209 ± 27 mm^3
1 mpk iv qw*2 weeks, day 0
  Tumor volume: 464 mm^3
1 mpk iv qw*2 weeks, day 2
  Tumor volume: 572 mm^3
1 mpk iv qw*2 weeks, day 4
  Tumor volume: 529 mm^3
1 mpk iv qw*2 weeks, day 6
  Tumor volume: 496 mm^3
1 mpk iv qw*2 weeks, day 8
  Tumor volume: 427 mm^3
1 mpk iv qw*2 weeks, day 10
  Tumor volume: 361 mm^3
1 mpk iv qw*2 weeks, day 13
  Tumor volume: 269 mm^3
1 mpk iv qw*2 weeks, day 15
  Tumor volume: 239 mm^3
1 mpk iv qw*2 weeks, day 17
  T/C: 10.6%
  TGI: 116.0%
  Tumor volume: 214 mm^3 and 214 ± 33 mm^3
1 mpk iv qw*4 weeks, day 0
  Tumor volume: 463 mm^3
1 mpk iv qw*4 weeks, day 2
  Tumor volume: 610 mm^3
1 mpk iv qw*4 weeks, day 4
  Tumor volume: 579 mm^3
1 mpk iv qw*4 weeks, day 6
  Tumor volume: 538 mm^3
1 mpk iv qw*4 weeks, day 8
  Tumor volume: 476 mm^3
1 mpk iv qw*4 weeks, day 10
  Tumor volume: 408 mm^3
1 mpk iv qw*4 weeks, day 13
  Tumor volume: 341 mm^3
1 mpk iv qw*4 weeks, day 15
  Tumor volume: 299 mm^3
1 mpk iv qw*4 weeks, day 17
  T/C: 14.5%
  TGI: 111%
  Tumor volume: 282 mm^3 and 293 mm^3 and 293 ± 66 mm^3
1 mpk sc 24 h minipump qw*2 weeks, day 0
  Tumor volume: 464 mm^3
1 mpk sc 24 h minipump qw*2 weeks, day 2
  Tumor volume: 517 mm^3
1 mpk sc 24 h minipump qw*2 weeks, day 4
  Tumor volume: 64 mm^3
1 mpk sc 24 h minipump qw*2 weeks, day 6
  Tumor volume: 480 mm^3
1 mpk sc 24 h minipump qw*2 weeks, day 8
  Tumor volume: 443 mm^3
1 mpk sc 24 h minipump qw*2 weeks, day 10
  Tumor volume: 393 mm^3
1 mpk sc 24 h minipump qw*2 weeks, day 13
  Tumor volume: 298 mm^3
1 mpk sc 24 h minipump qw*2 weeks, day 15
  Tumor volume: 249 mm^3
[2]
  T/C: 11.1%
  TGI: 115.5%
  Tumor volume: 223 mm^3 and 223 ± 46 mm^3
3 mpk iv qw*4 weeks, day 0
  Tumor volume: 464 mm^3
3 mpk iv qw*4 weeks, day 2
  Tumor volume: 566 mm^3
3 mpk iv qw*4 weeks, day 4
  Tumor volume: 526 mm^3
3 mpk iv qw*4 weeks, day 6
  Tumor volume: 462 mm^3
3 mpk iv qw*4 weeks, day 8
  Tumor volume: 377 mm^3
3 mpk iv qw*4 weeks, day 10
  Tumor volume: 320 mm^3
3 mpk iv qw*4 weeks, day 13
  Tumor volume: 249 mm^3
3 mpk iv qw*4 weeks, day 15
  Tumor volume: 243 mm^3
3 mpk iv qw*4 weeks, day 17
  T/C: 10.2%
  TGI: 116.7%
  Tumor volume: 205 mm^3 and 205 ± 14 mm^3
